Reference: patent US7419968B1, “Methods for treating therapy-resistant tumors” (Celmed Oncology (USA), Inc., priority 1999, dated 2008)
Read-outs that look alike come from different tables or passages of the source. Values belong to the molecule of their own block, whether it stands above or below them.

Assays:
[1] = target: T1, rHuTS (Homo sapiens, UniProt P04818); test: Inhibition of rHuTS reactions by Tomudex and 5-FdUMP; assay type: biochemical; conditions: for activity at 0.5 µM: read-out: rate as % of No Inhibitor
T1 construct: His tag (N); made in house; host or cells: E. coli BL21 (DE3), pET-28a(+)
T1 sequence (P04818 whole entry): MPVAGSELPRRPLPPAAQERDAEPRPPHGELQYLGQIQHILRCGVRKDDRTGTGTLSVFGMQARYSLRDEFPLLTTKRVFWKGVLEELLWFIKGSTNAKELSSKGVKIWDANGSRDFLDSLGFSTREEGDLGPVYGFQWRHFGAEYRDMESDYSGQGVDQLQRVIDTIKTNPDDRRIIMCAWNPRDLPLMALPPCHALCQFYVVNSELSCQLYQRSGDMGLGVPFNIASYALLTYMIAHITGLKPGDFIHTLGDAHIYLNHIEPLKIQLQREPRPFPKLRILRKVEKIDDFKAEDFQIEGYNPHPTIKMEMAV
Method: M. Enzyme Assays and Kinetic Measurements. Thymidylate synthase assays were done in 96 well Costar UV transparent plates in a reaction volume of 200 μl, consisting of 40 mM Tris pH 7.5, 25 mM MgCl2, 1 mM EDTA, 25 mM-mercaptoethanol, 125 µM dUMP, and 65 μM N5, N1O-methylene tetrahydrofolate indicated. Tetrahydrofolate stock solutions were prepared by dissolving tetrahydrofolic acid (Sigma) directly into 0.2 M Tris pH 7.5, 0.5 M-mercaptoethanol; stock solutions were stored at −80° C. N5, N10-methylene tetrahydrofolate was prepared by adding 12 μl of 3.8% formaldehyde to 1 ml of a 0.65 mM solution of tetrahydrofolate and incubating for 5 minutes at 37° C. N5, N10-methylene tetrahydrofolate was kept on ice and used within 2 hours of preparation.
Conversion of BVdUMP to fluorescent product(s) by thymidylate synthase was measured in 200 µl thymidylate synthase reactions containing 125 µM BVdUMP in 96 well Dynex Microfluor Black “U” bottom microtiter plates using an excitation wavelength of 340 nm and emission wavelength of 595 nm. Fluorescence was measured with a Tecan Spectrafluor Plus fluorimeter.
Inhibition of rHuTS reactions by Tomudex and 5-FdUMP. Thymidylate synthase reactions containing enzyme inhibitors or cofactor were incubated at 30° C. as described in Materials and Methods, and the initial rates of the enzyme reaction were determined by measuring the increase in relative fluorescence units at 340 nm excitation, 595 nm emission for the BVdUMP reactions, or increase in A340 for the dUMP reaction.

[2] = system: MCF7 (Breast) tumor cells; test: alamarBlue growth inhibition, MCF7; assay type: cell-based; conditions: Homo sapiens
Method: (§1) J. Growth Inhibition Studies. Cells growing exponentially were transferred to 384-well flat bottom tissue culture plates. All cell types were plated at a density of 500 cells per well in 25 μL of complete medium (RPMI 1640+10% fetal bovine serum+antibiotics/antimycotics). After 24 hours (day 0), 25 μL of complete medium containing the experimental compounds over the dose range of 10^ñ3 to 10^ñ10 M were added in triplicate. […] 5 μL of the redox indicator, alamarBlue, was added to each well (10% v/v). After 4 hours incubation at 37° C., fluorescence was monitored at 535 nm excitation and 595 nm emission.
(§2) Concentration vs. relative fluorescence units (RFU) were plotted, and sigmoid curves were fit using the Hill equation.

[3] = system: normal and tumor cell types; test: Tumor/normal cell screen, panel averages and therapeutic index; assay type: cell-based, human
Method: (§3) J. Growth Inhibition Studies. Cells growing exponentially were transferred to 384-well flat bottom tissue culture plates. All cell types were plated at a density of 500 cells per well in 25 μL of complete medium (RPMI 1640+10% fetal bovine serum+antibiotics/antimycotics). After 24 hours (day 0), 25 μL of complete medium containing the experimental compounds over the dose range of 10^ñ3 to 10^ñ10 M were added in triplicate. Drug exposure time was 120 hours (day 5), after which growth inhibition was assayed. 5 μL of the redox indicator, alamarBlue, was added to each well (10% v/v). After 4 hours incubation at 37° C., fluorescence was monitored at 535 nm excitation and 595 nm emission.
as §2
Assays were carried out as described in Methods, above. Therapeutic index is calculated as the ratio of the average IC50 for normal cells to the average IC50 for tumor cells. All assays were done at least three times.

[4] = system: MCF7 TDX Tomudex-resistant breast cancer cells; test: alamarBlue growth inhibition, MCF7 TDX; assay type: cell-based; conditions: Homo sapiens
Method: as §3, §2
(§4) O. Reversal of Resistance. The origin and characteristics of the human breast cancer MCF7 TDX cell line have been previously described (Drake, et al. (1996) Biochem. Pharmcol. 51(10): 1349-1355). Briefly, MCF-7 breast cancer cells were selected in vitro for resistance to Tomudex by continuous exposure to stepwise increases in TDX concentrations up to 2.0 μM.

[5] = system: TSL/HT1080 cells (TS Level 702%); test: alamarBlue growth inhibition, HT1080 clone with TS level 702%; assay type: cell-based; conditions: Homo sapiens, HT-1080, TSL/HT1080 (second line)
Method: (§5) F. Cell lines and transfection. HT1080 cells were grown in PRMI1640 medium supplemented with 10% fetal calf serum, and transfected with GFP-TS expression vector. 48 hours after, transfection cells were tripsinized and replated in culture medium containing 750 μg/ml G418. After selection with G418 for two weeks, surviving cells were sorted based upon fluorescence expression. One clone with higher fluorescence expression (named as TSH/HT1080) and one clone with lower fluorescence expression (named as TSL/HT1080) were selected and expanded into cells lines. The stable HT1080 cells transfected with pEGFP-C3 were used as control.
(§6) G. Construction of GFP-TS expression vector. […]
(§7) J. Growth Inhibition Studies. […] After 4 hours incubation at 37° C., fluorescence was monitored at 535 nm excitation and 595 nm emission.
as §2
(§8) A cDNA encoding rHuTS was subcloned into ventor pEGFP-C3, in-frame with GFP. […] Individual cells were cloned based upon high or low fluorescence expression as described in Methods. *TS levels were determined by using Western blot analysis, the quantified expression levels were expressed as values relative to that of cell strain CCD18co.

[6] = system: H630R10 5FU-resistant colon tumor cells; test: alamarBlue growth inhibition, H630R10; assay type: cell-based, human
Method: as §1, §2

[7] = system: CCD18co normal colon epthelial cell; test: Thymidine rescue, alamar blue; assay type: cell-based, human; conditions: for rescue by thymidine: 10 uM thymidine; for IC50: Homo sapiens, CCD-18Co
From the text: An additional approach was taken to understanding whether NB1011 might interfere with cell growth primarily by inactivating TS. This approach is based upon thymidine rescue of TS-blocked cells. […] For this reason, they survive only by scavenger mechanisms. One of the important scavenger mechanisms is utilization of extracellular thymidine. Thymidine incorporated by target cells can be converted to dTMP, usually by thymidine kinase, and thus continue DNA synthesis. Other pathways for use of exogenous thymidine have also been described If an important mechanism for NB1011 activity is via inhibition of endogenous TS, then the cytotoxicity should be relieved when thymidine is added to the cell culture media. For this experiment, a number of tumor cell lines were screened for their sensitivity to Tomudex and 5FdUrd, and ability to be rescued from these agents via thymidine supplementation. […] Experiments were carried out as described by (Patterson, et al. (1998) Cancer Res. 58: 2737-2740) with or without 10 uM thymidine, except that the alamar blue assay (see Materials and Methods) was employed to determine cytotoxicity.

[8] = target: T1, rHuTS; test: Impact of folate inhibitors, cell-free rHuTS substrate utilization; assay type: biochemical; conditions: for remaining activity: MTX 140 μM, LV 140 μM or TDX 5 μM
Method: M. Enzyme Assays and Kinetic Measurements. […] Tetrahydrofolate stock solutions were prepared by dissolving tetrahydrofolic acid (Sigma) directly into 0.2 M Tris pH 7.5, 0.5 M-mercaptoethanol; stock solutions were stored at −80° C. […] N5, N10-methylene tetrahydrofolate was kept on ice and used within 2 hours of preparation.
Cell-free assays using rHuTS, the appropriate substrate and other components were combined as described in Methods. […] Utilization of substrate (either BVdUMP or THF) was employed as a measure of reaction rate. The numbers indicate remaining activity.

[9] = target: T2, recombinant human thymidylate synthase (rHuTS) (Homo sapiens, UniProt P04818); test: Enzyme kinetics of rHuTS with dUMP and BVdUMP; assay type: biochemical
T2 construct: His tag (N); made in house; host or cells: E. coli BL21 (DE3), pET-28a(+)
T2 sequence (P04818 whole entry): as above
Method: L. Enzyme Preparation. Cloned human thymidylate synthase plasmid pBCHTS was subcloned into E. coli. BL21 (DE3)/pET-28a(+) (Novagen) using the NdeI ñSacI insertion site, in order to add an amino terminal His tag. […] M. Enzyme Assays and Kinetic Measurements. […] Tetrahydrofolate stock solutions were prepared by dissolving tetrahydrofolic acid (Sigma) directly into 0.2 M Tris pH 7.5, 0.5 M-mercaptoethanol; stock solutions were stored at -80° C. […] N5, N10-methylene tetrahydrofolate was kept on ice and used within 2 hours of preparation. […] The catalytic efficiency of the enzyme (Kcat/Km) was calculated from the kinetic constants Km and Vmax.

[10] = system: TSL/HT1080 cells (GFP-TS, lower expression); test: alamarBlue growth inhibition, TSL/HT1080; assay type: cell-based; conditions: Homo sapiens, HT-1080; TSL/HT1080, TS Level 409%
Method: as §5, §6, §7, §2, §8

[11] = system: C/HT1080 cells; test: alamarBlue growth inhibition, C/HT1080 control; assay type: cell-based; conditions: Homo sapiens, HT-1080; C/HT1080, TS Level 100%
Method: as §5, §6, §7, §2, §8

[12] = system: MCF7 TDX/1011 cells; test: alamarBlue growth inhibition, MCF7 TDX/1011; assay type: cell-based; conditions: Homo sapiens
Method: as §3, §2, §4

[13] = BVdUMP − THF, inhibitor 500 nM, relative fluorescence units

initial rate of rHuTS reaction ([1]; BVdUMP + THF, inhibitor 500 nM): 44 ± 2 RFU/min | initial rate of rHuTS reaction [1, 13]: 93 ± 13 | initial rate of rHuTS reaction ([1]; dUMP + THF, inhibitor 500 nM): 290 ± 70 nmol/min
SMILES: O=c1[nH]c(=O)n([C@H]2C[C@H](O)[C@@H](COP(=O)(O)O)O2)cc1F [5-FdUMP]

substrate utilization rate relative to reaction with THF ([8]; BVdUMP, w/o THF, Inhibitor None): 138% | type of inhibition with dUMP in rHuTS ([9]; 20 μM BVdUMP, dUMP 10 to 100 μM): competitive | increase in catalytic efficiency of BVdUMP conversion, human enzyme vs L. casei enzyme ([9]; relative to endogenous substrate dUMP): > 6.4 fold | initial rate of rHuTS reaction ([1]; BVdUMP + THF, No Inhibitor, 30° C.): 109 ± 16 RFU/min | initial rate of rHuTS reaction ([1]; BVdUMP − THF, No Inhibitor, relative fluorescence units): 75 ± 11
SMILES: O=c1[nH]c(=O)n([C@H]2C[C@H](O)[C@@H](COP(=O)(O)O)O2)cc1/C=C/Br [BVdUMP, (E)5-(2-Bromovinyl)-2′-deoxyuridine 5′-monophosphate]

remaining activity ([8]; BVdUMP, w/o THF): 25% | remaining activity ([8]; BVdUMP, with THF): 0% | remaining activity ([8]; dUMP, with THF): 18% | IC50 [2]: 0.026 µM | IC50 [10]: 24 µM | initial rate of rHuTS reaction ([1]; BVdUMP + THF, inhibitor 500 nM): 67 ± 3 RFU/min | activity at 0.5 µM ([1]; BVdUMP + THF, inhibitor 500 nM): 61% | activity at 0.5 µM ([1]; BVdUMP − THF, inhibitor 500 nM): 45% | initial rate of rHuTS reaction [1, 13]: 34 ± 3 | initial rate of rHuTS reaction ([1]; dUMP + THF, inhibitor 500 nM): 690 ± 40 nmol/min | activity at 0.5 µM ([1]; dUMP + THF, inhibitor 500 nM): 46% | IC50 [11]: 3.6 µM | IC50 [12]: 41 nM | IC50 [4]: > 10 µM | IC50 [5]: 153 µM
SMILES: Cc1nc2ccc(CN(C)c3ccc(C(=O)N[C@@H](CCC(=O)O)C(=O)O)s3)cc2c(=O)[nH]1 [Tomudex]
rescue by thymidine [7]: 15 fold | IC50 ([7]; with 10 uM thymidine): 95 nM | IC50 ([7]; without thymidine): 6.5 nM

initial rate of rHuTS reaction ([1]; dUMP + THF, No Inhibitor, A340): 1500 ± 20 nmol/min
SMILES: O=c1ccn([C@H]2C[C@H](O)[C@@H](COP(=O)(O)O)O2)c(=O)[nH]1 [dUMP, Deoxguridine Monophosphate]

Further lines, the molecule ahead of its results:

SMILES: O=c1[nH]cc(F)c(=O)[nH]1 [5FU, 5-fluorouracil]
IC50 [2]: 10 µM | more toxic to normal cells than to tumor cells ([3]; overall): 3 fold | Therapeutic index (N/T) ([3]; ratio of average IC50 normal cells to average IC50 tumor cells): 0.30 | IC50 [4]: 32 µM | IC50 [5]: 3.5 µM

SMILES: O=c1[nH]c(=O)n([C@H]2C[C@H](O)[C@@H](CO)O2)cc1F [5FUdR, 5-fluoro-2′-deoxyuridine]
more toxic to normal colon cells (CCD18co) than to 5FU-resistant H630R10 tumor cells [6]: about 18 fold | rescue by thymidine [7]: greater than 590 fold

SMILES: Nc1nc2c(c(=O)[nH]1)N(C=O)C(CNc1ccc(C(=O)N[C@@H](CCC(=O)O)C(=O)O)cc1)CN2 (stereo partly shown) [LV, 5-formyltetrahydrofolate]
remaining activity ([8]; BVdUMP, w/o THF): 97% | remaining activity ([8]; BVdUMP, with THF): 17% | remaining activity ([8]; dUMP, with THF): 77%
